Columns and labels:
[1] = target: T1, Melanin-concentrating hormone receptor 1 (Homo sapiens, UniProt Q99705); assay: Concentration required to inhibit binding of [125I]MCH radioligand to human melanin-concentrating hormone receptor 1 in IMR-32 I3.4.2 cell membranes
[2] = target: T1, Melanin-concentrating hormone receptor 1; assay: Concentration required to inhibit 50% of melanin-concentrating hormone induced [Ca2+] flux in IMR-32 cells measured by using a fluorometric imaging plate reader; type: functional, cell-based
[3] = Maximum concentration in brain was determined at the peroral dose of 10 mg/kg in diet-induced obese (DIO) mice; unit may be (ng/mL or ng/g); type: ADME, organism-based; parameters: dose 10 mg/kg, route oral; conditions: mouse, po
[4] = Maximum concentration in plasma was determined at the peroral dose of 10 mg/kg in diet-induced obese (DIO) mice; unit may be (ng/mL or ng/g); type: ADME, organism-based; parameters: dose 10 mg/kg, route oral; conditions: mouse, po
[5] = Half life in brain was determined at the peroral dose of 10 mg/kg in diet-induced obese (DIO) mice; type: ADME, organism-based; parameters: dose 10 mg/kg, route oral; conditions: mouse, po
[6] = Half life in plasma was determined at the peroral dose of 10 mg/kg in diet-induced obese (DIO) mice; type: ADME, organism-based; parameters: dose 10 mg/kg, route oral; conditions: mouse, po
[7] = Area under curve in plasma was determined at the peroral dose of 10 mg/kg in diet-induced obese (DIO) mice; unit may be (ng.h/mL or ng. h/g); type: ADME, organism-based; parameters: dose 10 mg/kg, route oral; conditions: mouse, in vivo, po
[8] = Area under curve in brain was determined at the peroral dose of 10 mg/kg in diet-induced obese (DIO) mice; unit may be (ng.h/mL or ng. h/g); type: ADME, organism-based; parameters: dose 10 mg/kg, route oral; conditions: mouse, in vivo, po

T1 sequence (Q99705 whole entry): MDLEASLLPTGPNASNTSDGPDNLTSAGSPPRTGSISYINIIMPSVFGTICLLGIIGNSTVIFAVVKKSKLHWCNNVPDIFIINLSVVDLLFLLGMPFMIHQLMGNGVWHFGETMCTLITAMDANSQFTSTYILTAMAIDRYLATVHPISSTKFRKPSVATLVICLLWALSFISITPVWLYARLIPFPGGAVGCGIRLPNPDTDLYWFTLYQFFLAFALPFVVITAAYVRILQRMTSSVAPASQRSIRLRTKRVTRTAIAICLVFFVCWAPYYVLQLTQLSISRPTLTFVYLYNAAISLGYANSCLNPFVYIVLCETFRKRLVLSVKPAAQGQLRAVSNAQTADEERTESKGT

Structure (SMILES)	IC50 [1] [nM]	IC50 [2] [nM]	other results
Nc1ccc2cccc(OCC3CCC3)c2n1	432	–	–
CC(CC(C)(C)C)Oc1cccc2ccc(N)nc12 (stereo in doubt; 19)	41	211	–
CC(C)COc1cccc2ccc(N)nc12	> 2000	–	–
CC1CCC(Oc2cccc3ccc(N)nc23)CC1 (stereo not drawn)	349	–	–
CC(CC(C)(C)C)Oc1cccc2cccnc12 (stereo not drawn)	> 2000	> 10000	–
CC(CC(C)(C)C)Oc1cccc2ccc(NCC3CC3)nc12 (stereo not drawn)	> 2000	> 10000	–
Nc1ccc2cccc(OC3CCCC3)c2n1	> 2000	–	–
CC#CCCOc1cccc2ccc(N)nc12	> 2000	–	–
Nc1ccc2cccc(OCC3CCCC3)c2n1	53	2290	–
CC(COC(C)(C)C)Oc1cccc2ccc(N)nc12 (stereo not drawn)	306	–	–
CC(C)OCCOc1cccc2ccc(N)nc12	> 2000	–	–
COCC(C)Oc1cccc2ccc(N)nc12 (stereo not drawn)	606	–	–
CSCCOc1cccc2ccc(N)nc12	> 2000	–	–
COc1cccc2ccc(N)nc12	1590	–	–
CC(C)CCOc1cccc2ccc(N)nc12	614	–	–
CC(C)C(C)Oc1cccc2ccc(N)nc12 (stereo not drawn)	199	–	–
CCCOc1cccc2ccc(N)nc12	1100	–	–
COCCOCCOc1cccc2ccc(N)nc12	> 2000	–	–
CCCCOc1cccc2ccc(N)nc12	789	–	–

Structure (SMILES)	IC50 [1] [nM]	IC50 [2] [nM]	other results
CCC#CCOc1cccc2ccc(N)nc12	> 2000	–	–
Nc1ccc2cccc(OCC3CC3)c2n1	> 2000	–	–
CC1CC1COc1cccc2ccc(N)nc12 (stereo not drawn)	1640	–	–
CCC(C)COc1cccc2ccc(N)nc12 (stereo not drawn)	36	–	–
CC(CC(C)(C)C)Oc1cccc2ccc(NCc3ccc(-c4ccccc4Cl)o3)nc12 (stereo not drawn)	60	530	–
CC(CC(C)(C)C)Oc1cccc2ccc(N3CCCC3)nc12 (stereo not drawn)	> 2000	> 10000	–
CC1CCCCC1Oc1cccc2ccc(N)nc12 (stereo not drawn)	32	1330	–
Nc1ccc2cccc(O)c2n1	> 2000	–	–
CCC(CC)Oc1cccc2ccc(N)nc12	326	–	–
Nc1ccc2cccc(OC3CCC3)c2n1	> 2000	–	–
CC1CCCC(Oc2cccc3ccc(N)nc23)C1 (stereo not drawn)	640	–	–
CCOCC(C)Oc1cccc2ccc(N)nc12 (stereo not drawn)	1070	–	–
Nc1ccc2cccc(OCC3CCCCC3)c2n1	90	1680	–
CCC(CC)C(C)Oc1cccc2ccc(N)nc12 (stereo not drawn)	191	1300	–
CC(CC(C)(C)C)Oc1cccc2ccc(N)nc12 (single isomer, unassigned; (+))	550	4510	–
Nc1ccc2cccc(OCC3CCCO3)c2n1 (stereo not drawn)	> 2000	–	–
CC(C)(C)CCOc1cccc2ccc(N)nc12	201	–	–
CCOCCOc1cccc2ccc(N)nc12	> 2000	–	–
CCCCCCOc1cccc2ccc(N)nc12	818	–	–

Structure (SMILES)	IC50 [1] [nM]	IC50 [2] [nM]	other results
Nc1ccc2cccc(OCC3CCOC3)c2n1 (stereo not drawn)	115	6240	–
CCCC(C)Oc1cccc2ccc(N)nc12 (stereo not drawn)	105	860	–
CC(C)Oc1cccc2ccc(N)nc12	437	–	–
CC(CC(C)(C)C)Oc1cccc2ccc(N(C)C)nc12 (stereo not drawn)	> 2000	> 10000	–
CC(CC(C)(C)C)Oc1cccc2ccc(N3CCCCC3)nc12 (stereo not drawn)	> 2000	> 10000	–
Nc1ccc2cccc(OCCC3CCCCC3)c2n1	808	–	–
Nc1ccc2cccc(OC3CCCCC3)c2n1	361	–	–
Nc1ccc2cccc(OCCC(F)(F)F)c2n1	722	–	–
Nc1ccc2cccc(OCC3CC4CCC3C4)c2n1 (stereo not drawn)	137	1730	–
COC(C)(C)CCOc1cccc2ccc(N)nc12	132	4670	–
CC1CCC(Oc2cccc3ccc(N)nc23)C1 (stereo not drawn)	823	–	–
Nc1ccc2cccc(OC3CCCCCC3)c2n1	137	3480	–
COCCOc1cccc2ccc(N)nc12	> 2000	–	–
CNc1ccc2cccc(OC(C)CC(C)(C)C)c2n1 (stereo not drawn)	310	6090	–
Nc1ccc2cccc(OCCC3CC3)c2n1	492	–	–
CCC(C)Oc1cccc2ccc(N)nc12 (stereo not drawn)	174	5310	–
CC(CC(C)(C)C)Oc1cccc2ccc(N)nc12 (single isomer, unassigned)	20	90	Cmax [3]: 595 ng/mL; Cmax [4]: 127 ng/mL; half-life [5]: 2.3 h; half-life [6]: 1.9 h; AUC [7]: 247 ng·h/mL; AUC [8]: 1030 ng·h/mL
CCCCCOc1cccc2ccc(N)nc12	580	–	–
CC(C)=CCOc1cccc2ccc(N)nc12	> 2000	–	–

— ChEMBL document CHEMBL1137102, “Synthesis and evaluation of 2-amino-8-alkoxy quinolines as MCHr1 antagonists. Part 1” (Bioorg Med Chem Lett, 2004)
